Reference: patent US8987250B2 (Gilead Sciences, Inc., priority 2012, dated 2015)

system: HIV-IIIb; test: Test A: Antiviral Assay in MT4 Cells; format: cell-based; conditions: Human immunodeficiency virus 1, IIIB, MT4, 120 h, Table 2; MT-4 cells infected with HIV-IIIb, 5 days of incubation, CellTiter-Glo; read-out: EC50
In short: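 Read-out: CellTiter-Glo chemiluminescence after 5-day incubation at 37 °C. Compounds tested as 3-fold serial dilutions (10 concentrations, quadruplicate) in RPMI 1640 with 10% FBS, on MT-4 cells pre-infected at 37 °C with HIV-IIIb at 0.004 m.o.i.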

SMILES	EC50
COc1ccc(-c2cc(-c3nc4cc(C)c([C@H](OC(C)(C)C)C(=O)O)c(-c5ccc(Cl)cc5)c4s3)ccn2)cc1OC [Compound 350]	14 nM
CCn1ncc2cc(-c3nc4cc(C)c([C@H](OC(C)(C)C)C(=O)O)c(-c5ccc(Cl)cc5)c4s3)ccc21 [Compound 351]	21 nM
CCCn1ncc2cc(-c3nc4cc(C)c([C@H](OC(C)(C)C)C(=O)O)c(-c5ccc(Cl)cc5)c4s3)ccc21 [Compound 352]	29 nM
Cc1cc2nc(-c3ccc4c(cnn4C(C)C)c3)sc2c(-c2ccc(Cl)cc2)c1[C@H](OC(C)(C)C)C(=O)O [Compound 353]	31 nM
COc1ncc(-c2ccc(-c3nc4cc(C)c([C@H](OC(C)(C)C)C(=O)O)c(-c5ccc(Cl)cc5)c4s3)cc2)cn1 [Compound 355]	182 nM
Cc1cc2nc(-c3ccc4nn(C5CCN(C)CC5)cc4n3)sc2c(-c2ccc(Cl)cc2)c1[C@H](OC(C)(C)C)C(=O)O [Compound 360]	13 nM
Cc1cc2nc(-c3nn(C)c4ccncc34)sc2c(-c2ccc(Cl)cc2)c1[C@H](OC(C)(C)C)C(=O)O [Compound 363]	15 nM
Cc1cc2nc(-c3cc4cn(C)nc4cn3)sc2c(-c2ccc(Cl)cc2)c1[C@H](OC(C)(C)C)C(=O)O [Compound 364]	9 nM
Cc1cc2nc(-c3ccnc(-c4cc5cn(C)nc5cn4)c3)sc2c(-c2ccc(Cl)cc2)c1[C@H](OC(C)(C)C)C(=O)O [Compound 368]	5 nM
Cc1cc2nc(-c3ccnc(-c4cc5cnn(C)c5cn4)c3)sc2c(-c2ccc(Cl)cc2)c1[C@H](OC(C)(C)C)C(=O)O [Compound 369]	8 nM
Cc1cc2nc(-c3ccnc(-c4ccc5nn(C6COC6)cc5c4)c3)sc2c(-c2ccc(Cl)cc2)c1[C@H](OC(C)(C)C)C(=O)O [Compound 371]	7 nM
CCCn1ncc2cc(-c3cc(-c4nc5cc(C)c([C@H](OC(C)(C)C)C(=O)O)c(-c6ccc(Cl)cc6)c5s4)ccn3)ccc21 [Compound 373]	37 nM
Cc1cc2nc(-c3ccnc(-c4ccc5c(cnn5C(C)C)c4)c3)sc2c(-c2ccc(Cl)cc2)c1[C@H](OC(C)(C)C)C(=O)O [Compound 374]	45 nM
Cc1cc2nc(-c3cc(-c4ccc5c(cnn5C)c4)ccn3)sc2c(-c2ccc(Cl)cc2)c1[C@H](OC(C)(C)C)C(=O)O [Compound 375]	228 nM
Cc1cc2nc(-c3ccnc(-c4cnn(C)c4C)c3)sc2c(-c2ccc(Cl)cc2)c1[C@H](OC(C)(C)C)C(=O)O [Compound 376]	19 nM
Cc1cc2nc(-c3cnc4c(c3)c(N3CCN(C)CC3)cn4C)sc2c(-c2ccc(Cl)cc2)c1[C@H](OC(C)(C)C)C(=O)O [Compound 377]	32 nM
Cc1cc2cc(-c3cc(-c4nc5cc(C)c([C@H](OC(C)(C)C)C(=O)O)c(-c6ccc(Cl)cc6)c5s4)ccn3)cnc2[nH]1 [Compound 380]	25 nM
Cc1cc2nc(-c3cn(C)c4ncc(F)cc34)sc2c(-c2ccc(Cl)cc2)c1[C@H](OC(C)(C)C)C(=O)O [Compound 381]	47 nM
Cc1cc2nc(-c3ccnc(-c4cn(C)c5ncc(F)cc45)c3)sc2c(-c2ccc(Cl)cc2)c1[C@H](OC(C)(C)C)C(=O)O [Compound 382]	91 nM
Cc1cc2nc(C3CC=Cc4nn(C)cc43)sc2c(-c2ccc(Cl)cc2)c1[C@H](OC(C)(C)C)C(=O)O (some centres unmarked) [Compound 384]	332 nM
Cc1cc2nc(-c3cccc4c3OCC(=O)N4)sc2c(-c2ccc(Cl)cc2)c1[C@H](OC(C)(C)C)C(=O)O [Compound 388]	28 nM
Cc1cc2nc(-c3ccnc(-c4ccc5c(c4)OCC(=O)N5C)c3)sc2c(-c2ccc(Cl)cc2)c1[C@H](OC(C)(C)C)C(=O)O [Compound 389]	7 nM
Cc1cc2nc(-c3ccnc(-c4cccc5c4OCC(=O)N5)c3)sc2c(-c2ccc(Cl)cc2)c1[C@H](OC(C)(C)C)C(=O)O [Compound 392]	27 nM
Cc1cc2nc(-c3ccnc(-c4ccc5c(c4)N(C)C(=O)CO5)c3)sc2c(-c2ccc(Cl)cc2)c1[C@H](OC(C)(C)C)C(=O)O [Compound 393]	33 nM

Continued by falling EC50, values first:

EC50	SMILES
3330 nM	Cc1cc2nc(-c3ccc(-c4cnc(=O)[nH]c4)cc3)sc2c(-c2ccc(Cl)cc2)c1[C@H](OC(C)(C)C)C(=O)O [Compound 356]
1370 nM	Cc1cc2nc(-c3ccc(-c4ccc(Br)cc4)cc3)sc2c(-c2ccc(Cl)cc2)c1[C@H](OC(C)(C)C)C(=O)O [Compound 354]
530 nM	Cc1cc2nc(-c3cccc4c3cnn4C)sc2c(-c2ccc(Cl)cc2)c1[C@H](OC(C)(C)C)C(=O)O [Compound 387]
241 nM	Cc1cc2nc(-c3ccc4c(n3)c(C)nn4C)sc2c(-c2ccc(Cl)cc2)c1[C@H](OC(C)(C)C)C(=O)O [Compound 358]
143 nM	Cc1cnc2n(C)cc(-c3cc(-c4nc5cc(C)c([C@H](OC(C)(C)C)C(=O)O)c(-c6ccc(Cl)cc6)c5s4)ccn3)cc1-2 [Compound 385]
56 nM	Cc1cc2nc(-c3ccnc(-c4cnc5c(c4)c(C)cn5C)c3)sc2c(-c2ccc(Cl)cc2)c1[C@H](OC(C)(C)C)C(=O)O [Compound 386]
51 nM	Cc1cc2nc(-c3cnc4c(c3)c(C3=CCN(C)CC3)cn4C)sc2c(-c2ccc(Cl)cc2)c1[C@H](OC(C)(C)C)C(=O)O [Compound 378]
29 nM	Cc1cc2nc(-c3cc4cnn(C)c4cn3)sc2c(-c2ccc(Cl)cc2)c1[C@H](OC(C)(C)C)C(=O)O [Compound 365]
21 nM	Cc1cc2nc(-c3ccc4nn(C)c(C)c4n3)sc2c(-c2ccc(Cl)cc2)c1[C@H](OC(C)(C)C)C(=O)O [Compound 359]
21 nM	Cc1cc2nc(-c3c4cnccc4nn3C)sc2c(-c2ccc(Cl)cc2)c1[C@H](OC(C)(C)C)C(=O)O [Compound 362]
20 nM	Cc1cc2nc(-c3ccc4c(cnn4C4CCN(C)CC4)n3)sc2c(-c2ccc(Cl)cc2)c1[C@H](OC(C)(C)C)C(=O)O [Compound 361]
18 nM	Cc1cc2nc(-c3ccnc(-c4ccc5c(c4)c(N)nn5C)c3)sc2c(-c2ccc(Cl)cc2)c1[C@H](OC(C)(C)C)C(=O)O [Compound 383]
15 nM	Cc1cc2cc(-c3nc4cc(C)c([C@H](OC(C)(C)C)C(=O)O)c(-c5ccc(Cl)cc5)c4s3)cnc2[nH]1 [Compound 379]
12 nM	Cc1cc2nc(-c3nccc(-c4ccc5c(cnn5C)c4)n3)sc2c(-c2ccc(Cl)cc2)c1[C@H](OC(C)(C)C)C(=O)O [Compound 357]
11 nM	Cc1cc2nc(-c3ccnc(-c4ccc5c(c4)OCC(=O)N5)c3)sc2c(-c2ccc(Cl)cc2)c1[C@H](OC(C)(C)C)C(=O)O [Compound 391]
9 nM	Cc1cc2nc(-c3ccnc(-c4cccc5c4OCC(=O)N5C)c3)sc2c(-c2ccc(Cl)cc2)c1[C@H](OC(C)(C)C)C(=O)O [Compound 390]
7 nM	Cc1cc2nc(-c3ccnc(-c4ccc5c(cnn5C5COC5)c4)c3)sc2c(-c2ccc(Cl)cc2)c1[C@H](OC(C)(C)C)C(=O)O [Compound 372]
6 nM	Cc1cc2nc(-c3ccc4nn(C)cc4n3)sc2c(-c2ccc(Cl)cc2)c1[C@H](OC(C)(C)C)C(=O)O [Compound 366]
6 nM	Cc1cc2nc(-c3ccc4c(cnn4C)n3)sc2c(-c2ccc(Cl)cc2)c1[C@H](OC(C)(C)C)C(=O)O [Compound 367]
4 nM	Cc1cc2nc(-c3ccnc(-c4ccc5nn(C)cc5n4)c3)sc2c(-c2ccc(Cl)cc2)c1[C@H](OC(C)(C)C)C(=O)O [Compound 370]
